Laboratory results from patent US6737383B1, “Herbicidal oxadiazolidines” (priority 1999, dated 2004).

Experiments:
[1] = tested on: cocklebur; test: Test B pre/postemergence cocklebur; type: in vivo, Xanthium strumarium
Summary of the method: (§1)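 Test chemicals in a non-phytotoxic solvent mixture with surfactant were sprayed preemergence onto planted seeds and postemergence onto plants 2 to 18 cm tall (1- to 4-leaf stage). After twelve to sixteen days in a greenhouse, injury was visually rated against untreated controls from 0 (no effect) to 10 (complete control).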

[2] = tested on: sugar beet; test: Test B pre/postemergence sugar beet; type: in vivo, Beta vulgaris
Summary of the method: as §1

[3] = tested on: smallflower flatsedge; test: Test B flood test smallflower flatsedge; type: in vivo, Cyperus difformis
Summary of the method: (§2)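 Flood test on plants grown to the 2-leaf stage; treated plants kept in greenhouse twelve to sixteen days, then visually rated against controls on a 0 (no effect) to 10 (complete control) scale.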

[4] = tested on: bamyardgrass; test: Test B flood test barnyardgrass; type: in vivo, Echinochloa crus-galli
Summary of the method: as §2

[5] = tested on: winter wheat; test: Test E winter wheat; type: in vivo, Triticum aestivum; details: Postemergence; for Plant response rating, Wheat (winter): 0 to 100 scale, 0 is no effect, 100 is complete control
Summary of the method: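 Greenhouse test: for postemergence, foliar application at 1- to 4-leaf stage; compound in non-phytotoxic solvent with surfactant. Rating is visual, relative to untreated controls, about 21 to 28 days after treatment.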

[6] = tested on: blackgrass; test: Test E blackgrass; type: in vivo, Alopecurus myosuroides; details: Preemergence
[7] = tested on: green foxtail; test: Test E green foxtail; type: in vivo, Setaria viridis; details: Preemergence
[8] = tested on: Italian ryegrass; test: Test E Italian ryegrass; type: in vivo, Lolium multiflorum; details: Preemergence
[9] = tested on: winter wheat; test: Test E winter wheat; type: in vivo, Triticum aestivum; details: Preemergence
[10] = tested on: wild oat; test: Test E wild oat; type: in vivo, Avena fatua; details: Preemergence
[11] = tested on: winter barley; test: Test E winter barley; type: in vivo, Hordeum vulgare; details: Preemergence
[12] = Preemergence, Rate 62 g/ha, scale of 0 to 10 where 0 is no effect and 10 is complete control
[13] = Preemergence, Rate 250 g/ha, scale of 0 to 10 where 0 is no effect and 10 is complete control
[14] = Preemergence, Rate 500 g/ha, scale of 0 to 10 where 0 is no effect and 10 is complete control
[15] = Rate 62 g/ha, Postemergence, scale 0 to 10 (0 no effect, 10 complete control)
[16] = Rate 250 g/ha, Postemergence, scale of 0 to 10 where 0 is no effect and 10 is complete control
[17] = Rate 125 g/ha, Postemergence, scale of 0 to 10 where 0 is no effect and 10 is complete control
[18] = Rate 62 g/ha, headed Pre-emergence (flood test species), scale 0 to 10 (0 no effect, 10 complete control)
[19] = Rate 125 g/ha, Pre-emergence, flood test species, scale 0 to 10 where 0 is no effect and 10 is complete control
[20] = Rate 250 g/ha, Pre-emergence, flood-test species, scale 0 to 10, 0 is no effect, 10 is complete control
[21] = Rate 500 g/ha, Pre-emergence, flood test species, scale 0 to 10 (0 no effect, 10 complete control)
[22] = Rate 125 g/ha, 0 to 100 scale (0 no effect, 100 complete control)
[23] = Postemergence, Rate 31 g/ha, visual rating, scale 0 to 10 (0 no effect, 10 complete control)
[24] = Preemergence, Rate 31 g/ha, visual rating, scale 0 to 10 (0 no effect, 10 complete control)
[25] = Rate 125 g/ha, Preemergence, scale of 0 to 10 where 0 is no effect and 10 is complete control
[26] = Rate 31 g/ha, Pre-emergence section (flood test species), scale 0 to 10

| Structure (SMILES) | Cocklebur plant response rating [1, 12] | Cocklebur plant response rating [1, 13] | Cocklebur plant response rating [1, 15] | Plant response rating, Cocklebur [1, 16] | Sugarbeets plant response rating [2, 12] | Sugarbeets plant response rating [2, 13] | Sugarbeets plant response rating [2, 15] | Sugarbeets plant response rating [2, 17] | Plant response rating, Sugarbeets [2, 16] | S. Flatsedge plant response rating [3, 18] | S. Flatsedge plant response rating [3, 19] | S. Flatsedge plant response rating [3, 20] | Barnyardgrass plant response rating [4, 18] | Barnyardgrass plant response rating [4, 19] | Barnyardgrass plant response rating [4, 20] | Plant response rating, Wheat (winter) ([5]; Rate 125 g/ha) | Plant response rating, Blackgrass [6, 22] | Plant response rating, Green foxtail [7, 22] | Plant response rating, I. Ryegrass [8, 22] | Plant response rating, Wheat (winter) [9, 22] | other results |
| --- | --- | --- | --- | --- | --- | --- | --- | --- | --- | --- | --- | --- | --- | --- | --- | --- | --- | --- | --- | --- | --- |
| CSCCn1c(=O)on(C(=O)N(c2ccc(F)cc2)C(C)C)c1=O [Compound 314] | 0 | 0 | 0 | 1 | 0 | 2 | 0 | 0 | 0 | 0 | 0 | 0 | 0 | 0 | 0 | 65 | 40 | 60 | 50 | 65 | Cocklebur plant response rating (0 to 10 scale) ([1]; Preemergence, Rate 125 g/ha): 0; Cocklebur plant response rating [1, 14]: 0; Cocklebur plant response rating ([1]; Rate 500 g/ha, Postemergence, scale 0 to 10, 0 no effect, 10 complete control): 1; Sugarbeets plant response rating (0 to 10 scale) ([2]; Preemergence, Rate 125 g/ha): 2; Sugarbeets plant response rating [2, 14]: 6; S. Flatsedge plant response rating [3, 21]: 0; Barnyardgrass plant response rating [4, 21]: 0; Plant response rating, Wheat (winter) ([5]; Rate 250 g/ha): 70; Plant response rating, Blackgrass ([6]; Rate 250 g/ha, 0 to 100 scale): 50; Plant response rating, Green foxtail ([7]; Rate 250 g/ha, 0 to 100 scale): 85; Plant response rating, I. Ryegrass ([8]; Rate 250 g/ha, 0 to 100 scale): 55; Plant response rating, Wheat (winter) ([9]; Rate 250 g/ha, 0 to 100 scale): 70; Plant response rating, Wild oat [10, 22]: 70; Plant response rating, Wild oat ([10]; Rate 250 g/ha, 0 to 100 scale): 70; Plant response rating, Barley (winter) [11, 22]: 50; Plant response rating, Barley (winter) ([11]; Rate 250 g/ha, 0 to 100 scale, 0 no effect, 100 complete control): 60 |
| CCOCn1c(=O)on(C(=O)N(c2ccc(F)cc2)C(C)C)c1=O [Compound 295] | 0 | 0 | 0 | 0 | 0 | 3 | 0 | 0 | 0 | 0 | 0 | 0 | 0 | 0 | 0 | 30 | 0 | 50 | 40 | 40 | Cocklebur plant response rating [1, 23]: 0; Cocklebur plant response rating [1, 24]: 0; Cocklebur plant response rating [1, 17]: 0; Cocklebur plant response rating [1, 25]: 0; Sugarbeets plant response rating [2, 23]: 0; Sugarbeets plant response rating [2, 24]: 0; Sugarbeets plant response rating [2, 25]: 0; S. Flatsedge plant response rating [3, 26]: 0; Barnyardgrass plant response rating [4, 26]: 0; Wheat (winter) plant response rating ([5]; Rate 250 g/ha, 0 to 100 scale where 0 is no effect and 100 is complete control): 50; Blackgrass plant response rating (0 to 100 scale) ([6]; Rate 250 g/ha): 10; Green foxtail plant response rating (0 to 100 scale) ([7]; Rate 250 g/ha): 100; I. Ryegrass plant response rating (0 to 100 scale) ([8]; Rate 250 g/ha): 50; Wheat (winter) plant response rating (0 to 100 scale) ([9]; Rate 250 g/ha): 60; Plant response rating, Wild oat [10, 22]: 0; Wild oat plant response rating (0 to 100 scale) ([10]; Rate 250 g/ha): 10; Plant response rating, Barley (winter) [11, 22]: 20; Barley (winter) plant response rating (0 to 100 scale) ([11]; Rate 250 g/ha): 30 |
